Data: patent US5576318A, “Benzimidazolone derivatives” (Boehringer Ingelheim Italia S.p.A., priority 1991, dated 1996)

Experiments:
5-HT2 receptors = experiment: Antagonism of quipazine-induced head twitches; type: in vivo; settings: ip; head twitches scored within 20 minutes in quipazine-treated animals
5-HT1A receptor = target: T1, 5-HT1A receptor (Rattus norvegicus, UniProt P19327); experiment: 5-HT1A receptor binding ([3H]-8-OH-DPAT displacement, rat hippocampi); parameters: species or system rat (male Sprague Dawley); settings: 30° C. for 15 min, read-out: AFFINITY FOR 5-HT1A RECEPTORS Ki
T1 construct: The Hippocampi of these animals were homogenized in 10 volumes of ice cold TRIS buffer; from tissue; host or cells: hippocampus of male Sprague Dawley rats, homogenate
T1 sequence (P19327 1-422): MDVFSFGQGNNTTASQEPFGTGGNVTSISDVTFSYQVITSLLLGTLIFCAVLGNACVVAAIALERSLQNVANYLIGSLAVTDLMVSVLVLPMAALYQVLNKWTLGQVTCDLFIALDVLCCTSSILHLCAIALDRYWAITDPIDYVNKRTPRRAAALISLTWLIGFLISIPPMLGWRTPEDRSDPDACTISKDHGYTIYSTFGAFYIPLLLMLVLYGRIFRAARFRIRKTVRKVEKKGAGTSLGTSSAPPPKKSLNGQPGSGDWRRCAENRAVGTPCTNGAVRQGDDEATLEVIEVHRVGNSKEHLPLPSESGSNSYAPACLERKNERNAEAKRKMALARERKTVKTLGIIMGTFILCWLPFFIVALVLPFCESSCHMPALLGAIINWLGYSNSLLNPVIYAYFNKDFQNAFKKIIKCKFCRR
Procedure: Rats (male Sprague Dawley, 200-250 g) were used. The Hippocampi of these animals were homogenized in 10 volumes of ice cold TRIS buffer (pH 7.4). The homogenate was diluted 1:400 (w:v) in the same buffer to have a final protein concentration of about 200 μg/mL, filtered and incubated at 37° C. for 10 min, before use.
Displacement experiments were performed by incubating the homogenate (980 μL) in the presence of [^3 H]-80H-DPAT (1.0-1,5 nM) (10 μL) and of different concentrations of the test compounds dissolved in the test buffer (10 μL), at 30° C. for 15 min (final volume: 1 mL).
Non specific binding was determined in the presence of 100 μM 5-HT (10 μL). The separation of [^3 H]-8-OH-DPAT, free from that bound to the receptor, was carried out by the filtration technique (GF/B filters, Whatman). The radioactivity present was counted by liquid scintillation spectrometry.
(§1) The affinity values (Ki) for the compounds were obtained by a non linear least squares regression analysis on the basis of a one binding site model. The values were corrected on the basis of the radioligand occupancy on the receptors according to the equation: Ki=IC50 /(1+[C]/KD),where [C] and KD represent the concentration and the dissociation constant, respectively, of the radioligand used ([^3 H]-8-OH-DPAT).

5-HT1A receptors = experiment: Behavioral syndrome: induction of 5-HT1A related syndrome; type: in vivo, rat; parameters: key: sum of symptom scores per rat within 50 min; settings: within 50 min, mean ± s.e. from 4 rats
Procedure: The test consists of administering the compound and registering the presence of the above mentioned symptoms within 50 min giving them a score. The results are expressed as the sum of said scores for each rat (Tab. 2).
Values represent mean± s.e. from 4 rats

5-HT2 receptor = target: T2, 5-HT2 receptor (Rattus norvegicus, UniProt P14842); experiment: 5-HT2 receptor binding ([3H]-Ketanserine displacement, rat cerebral cortices); parameters: species or system rat (male Sprague Dawley); settings: 37° C. for 10 min, read-out: AFFINITY FOR 5-HT2 RECEPTORS Ki
T2 construct: Cerebral cortices were homogenized in 10 volumes of ice cold 0.32M sucrose; from tissue; host or cells: cerebral cortex of male Sprague Dawley rats, membranes
T2 sequence (P14842 whole entry): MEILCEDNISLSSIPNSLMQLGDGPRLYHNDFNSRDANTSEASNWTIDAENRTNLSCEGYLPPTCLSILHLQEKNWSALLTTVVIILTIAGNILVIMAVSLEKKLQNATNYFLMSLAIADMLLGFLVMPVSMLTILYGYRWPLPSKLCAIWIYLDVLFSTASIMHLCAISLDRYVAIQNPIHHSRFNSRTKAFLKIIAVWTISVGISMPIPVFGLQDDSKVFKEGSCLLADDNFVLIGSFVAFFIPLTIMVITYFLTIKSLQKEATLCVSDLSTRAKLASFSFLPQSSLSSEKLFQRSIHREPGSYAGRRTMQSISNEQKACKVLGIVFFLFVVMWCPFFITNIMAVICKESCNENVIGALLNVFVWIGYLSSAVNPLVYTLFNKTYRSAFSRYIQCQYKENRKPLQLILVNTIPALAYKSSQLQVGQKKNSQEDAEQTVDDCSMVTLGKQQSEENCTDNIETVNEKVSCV
Procedure: Receptor binding studies on 5-HT1A and 5-HT2 receptors were carried out to determine the affinity of the test compounds.
Rats (male Sprague Dawley, 200-250 g) were used. Cerebral cortices were homogenized in 10 volumes of ice cold 0.32M sucrose. After the centrifugation of the homogenate (1,000×g for 10 min) the supernatant was then recentrifuged at 48,000×g for 15 min. The resulting pellet was resuspended in 10 volumes of 50 mM TRIS buffer (pH 7.4), incubated at 37° C. for 10 min and recentrifuged at 48,000×g for 15 min. The residue was then resuspended in 10 volumes of 50 mM TRIS buffer (pH 7.4).
The tissue was diluted 1:100 (w:v) in 50 mM TRIS buffer (pH 7.4) to have a final protein concentration of about 200 μg/mL.
Displacement experiments were performed by incubating the homogenate (980 μL) in the presence of [^3 H]-Ketanserine (0.5-1.0 nM) (10 μL) and of different concentrations of the test compounds dissolved in the assay buffer (10 μL), at 37° C. for 10 min (final volume: 1 mL).
Non specific binding was determined in the presence of 100 μM Methysergide (10 μL). The separation of [^3 H]-Ketanserine free from that bound to the receptor was carried by the filtration technique (GF/B filters, Whatman). The radioactivity present was counted by liquid scintillation spectrometry.
as §1, with “by” for “by a”, “model. These” for “model. The”, “Ki=IC50 /(1+[C]/KD), where” for “Ki=IC50 /(1+[C]/KD),where”, “([^3 H]-Ketanserine).” for “([^3 H]-8-OH-DPAT).”
The results of some of the compounds of the present invention on the affinity to the 5-HT1A and 5-HT2 receptors are reported in Table 1.

Compound | DOSE OF COMPOUND (ID50) WHICH ANTAGONIZES THE SYNDROME INDUCED BY QUIPAZINE (5-HT2 receptors) [μg/kg/ip] | Ki (5-HT1A receptor) [nM] | INDUCTION OF 5-HT1A RELATED SYNDROME Total score (5-HT1A receptors; dose 8 mg/kg/ip) | Ki (5-HT2 receptor) [nM] | INDUCTION OF 5-HT1A RELATED SYNDROME Total score (5-HT1A receptors; dose 16 mg/kg/ip) | INDUCTION OF 5-HT1A RELATED SYNDROME Total score (5-HT1A receptors; dose 32 mg/kg/ip)
COc1ccccc1N1CCN(CCCCn2c(=O)[nH]c3ccccc32)CC1 [Compound 1, 1-[4-(4-(2-methoxy-phenyl)piperazin-1-yl)butyl]-2,3-dihydro-1H-benzimidazol-2-one] | 720 | 13 | 7.3 ± 0.9 | 36 | – | –
O=c1[nH]c2ccccc2n1CCN1CCN(c2cccc(C(F)(F)F)c2)CC1 [Compound 3, 1-[2-(4-(3-trifluoromethyl-phenyl)piperazin-1-yl)ethyl]-2,3-dihydro-1H-benzimidazol-2-one] | 498 | 50 | – | 133 | 5.3 ± 1.2 | –
O=c1[nH]c2ccccc2n1CCCCN1CCN(c2cccc(Cl)c2)CC1 [Compound 4, 1-[4-(4-(3-chlorophenyl)piperazin-1-yl)butyl]-2,3-dihydro-1H-benzimidazol-2-one] | 250 | 74 | 0.8 ± 0.5 | 1.4 | 3.3 ± 1.0 | –
O=c1[nH]c2ccccc2n1CCCCN1CCN(c2cccc(C(F)(F)F)c2)CC1 [Compound 8, 1-[4-(4-(3-trifluoromethyl-phenyl)piperazin-1-yl)butyl]-2,3-dihydro-1H -benzimidazol-2-one] | 385 | 53 | 3.0 ± 2.7 | 9.5 | – | –
Cn1c(=O)n(CCCCN2CCN(c3cccc(C(F)(F)F)c3)CC2)c2ccccc21 [Compound 9, 1-[4-(4-(3-trifluoromethyl-phenyl)piperazin-1-yl)butyl]-3-methyl-2,3-dihydro-1H-benzimidazol-2-one] | 1720 | 23 | 2.0 ± 0.6 | 14 | – | –
COc1ccccc1N1CCN(CCCn2c(=O)[nH]c3ccccc32)CC1 [Compound 10, 1-[3-(4-(2-methoxyphenyl)piperazin-1-yl)propyl]-2,3-dihydro-1H-benzimidazol-2-one] | 3300 | 5 | 3.0 ± 0.4 | 30 | – | –
CCn1c(=O)n(CCCCCCN2CCN(c3cccc(C(F)(F)F)c3)CC2)c2ccccc21 [Compound 13, 1-[6-(4-(3-trifluoromethyl-phenyl)piperazin-1-yl)hexyl]-3-ethyl-2,3-dihydro-1H-benzimidazol-2-one] | 8200 | 15 | – | 15 | – | 3.8 ± 1.3
CC(C)n1c(=O)n(CCCCN2CCN(c3cccc(C(F)(F)F)c3)CC2)c2ccccc21 [Compound 15, 1-[4-(4-(3-trifluoromethyl-phenyl)piperazin-1-yl)butyl]-3-isopropyl-2,3-dihydro-1H-benzimidazol-2-one] | – | 80 | – | 20 | – | –
Cn1c(=O)n(CCCCN2CCN(c3cccc(Cl)c3)CC2)c2ccccc21 [Compound 17, 1-[4-(4-(3-chlorophenyl)piperazin-1-yl)butyl]-3-methyl-2,3-dihydro-1H-benzimidazol-2-one] | 178 | 30 | 1.5 ± 0.7 | 8 | – | 10.3 ± 2.9
O=c1[nH]c2ccccc2n1CCCN1CCN(c2cccc(C(F)(F)F)c2)CC1 [Compound 18, 1-[3-(4-(3-trifluoromethyl-phenyl)piperazin-1-yl)propyl]-2,3-dihydro-1H-benzimidazol-2-one] | 170 | 25 | – | 4 | 3.8 ± 2.2 | 12.0 ± 3.2
COc1ccc2[nH]c(=O)n(CCCCN3CCN(c4ccccc4OC)CC3)c2c1 [Compound 24, 6-methoxy-1-[4-(4-(2-methoxyphenyl)piperazin-1-yl)butyl]-2,3-dihydro-1H-benzimidazol-2-one] | 102 | 12 | 4.3 ± 1.1 | 65 | – | –
COc1ccc2[nH]c(=O)n(CCCCN3CCN(c4cccc(C(F)(F)F)c4)CC3)c2c1 [Compound 25, 6-methoxy-1-[4-(4-(3-trifluoromethyl-phenyl)piperazin-1-yl)butyl]-2,3-dihydro-1H-benzimidazol-2-one] | 1420 | 100 | 2.0 ± 1.2 | 25 | – | –
O=c1[nH]c2ccccc2n1CCCCN1CCN(c2cccc3ccccc23)CC1 [Compound 30, 1-[4-(4-(1-naphtyl)piperazin-1-yl)butyl]-2,3-dihydro-1H-benzimidazol-2-one] | – | 10 | – | 7 | – | –
